Measurements from BigSolDB 2.1.

CC(=O)Oc1ccc(C(c2ccc(OC(C)=O)cc2)c2ccccn2)cc1
solubility (mole fraction)
Details | 278.15 K | 283.15 K | 288.15 K | 293.15 K | 298.15 K | 303.15 K | 308.15 K | 313.15 K | 318.15 K | 323.15 K
in ethanol | 0.000239 | 0.000333 | 0.000452 | 0.000618 | 0.000835 | 0.0011 | 0.00145 | 0.00192 | 0.0025 | 0.00322
in isopropanol | 0.000113 | 0.000162 | 0.000225 | 0.000311 | 0.000425 | 0.000579 | 0.000777 | 0.00104 | 0.00139 | 0.00179
in methanol | 0.000551 | 0.000716 | 0.000931 | 0.00119 | 0.0015 | 0.0019 | 0.00239 | 0.00292 | 0.00364 | 0.00449
in water | 9.39e-08 | 1.13e-07 | 1.35e-07 | 1.62e-07 | 1.91e-07 | 2.25e-07 | 2.64e-07 | 3.08e-07 | 3.57e-07 | 4.13e-07
